Laboratory results from PMC4749215, “Simvastatin Sodium Salt and Fluvastatin Interact with Human Gap Junction Gamma-3 Protein” (PLoS ONE, 2016).
Counter-ions that a name gives are not always drawn.

Biological target: T1, peptide A (contig29; N-terminal residues 1-25 of GJC3, hCx30.2/31.3) (Homo sapiens, UniProt Q8NFK1)
T1 construct: not the full-length connexin
T1 sequence (Q8NFK1 1-25): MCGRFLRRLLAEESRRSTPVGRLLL
Assay: surface plasmon resonance (ProteOn XPR36), immobilised biotinylated peptide
Format: binding
Conditions: PBS; 0-400 uM titration; N-terminal 25-residue peptide only

Structure (SMILES) | surface plasmon resonance (ProteOn XPR36), immobilised biotinylated peptide
CCC(C)(C)C(=O)O[C@H]1C[C@@H](C)C=C2C=C[C@H](C)[C@H](CC[C@@H](O)C[C@@H](O)CC(=O)O)[C@H]21 [simvastatin sodium salt] | simvastatin acid sodium salt exhibited a weak, concentration dependent binding profile
O=C(O)c1cccnc1Nc1cccc(C(F)(F)F)c1 [niflumic acid] | concentration dependent binding profile of niflumic acid was observed with peptide A
CC1(C)[C@@H](OC(=O)CCC(=O)O)CC[C@]2(C)[C@H]3C(=O)C=C4[C@@H]5C[C@@](C)(C(=O)O)CC[C@]5(C)CC[C@@]4(C)[C@]3(C)CC[C@@H]12 [carbenoxolone disodium salt] | carbenoxolone, exhibited a pronounced binding interaction
CC(C)n1c(/C=C/C(O)CC(O)CC(=O)O)c(-c2ccc(F)cc2)c2ccccc21 (stereo not shown) [fluvastatin sodium salt] | fluvastatin sodium salt, more pronounced binding is seen to peptide A
